What was measured:
HepG2 cells = assay: Senescence-associated β-galactosidase assay, HepG2; type: cell-based, human; settings: HepG2, DOXO 0.5 μM, 48 h
H9c2 cells = assay: Senescence-associated β-galactosidase assay, H9c2; type: cell-based, rat; settings: H9c2, DOXO 0.5 μM, 48 h
Caco-2 cell monolayer = assay: Caco-2 permeability assay; type: in vitro ADME, human; settings: Caco-2 monolayer, compounds at 100 μg/ml, after three hours of treatment

Row | Permeability (%) (Caco-2 cell monolayer) | SMILES | SA β-gal-positive cells induced (HepG2 cells) | SA β-gal-positive cells induced (H9c2 cells)
1 | – | COc1cccc2c1C(=O)c1c(O)c3c(c(O)c1C2=O)C[C@@](O)(C(=O)CO)C[C@@H]3O[C@H]1C[C@H](N)[C@H](O)[C@H](C)O1 [DOXO, doxorubicin] | about 60% | ~35%
2 | 82.4% | CC(C)NCC(O)COc1cccc2ccccc12 (stereo not drawn) [Propranolol] | – | –

— PMC7574383 (Epigenetics, 2020)
